This is an account of results in US20050209232A1, “Pyridazinone ureas as antagonists of alpha4 integrins” (priority 2004, published 2005).

pIC50: −log10 of the molar value.

One assay addresses T1, human α4β7 integrin (Homo sapiens, UniProt P13612+P26010).
T1 construct: expressed in transfected cells; host or cells: K562 cells, stably transfected
T1 sequence (P13612 34-1032): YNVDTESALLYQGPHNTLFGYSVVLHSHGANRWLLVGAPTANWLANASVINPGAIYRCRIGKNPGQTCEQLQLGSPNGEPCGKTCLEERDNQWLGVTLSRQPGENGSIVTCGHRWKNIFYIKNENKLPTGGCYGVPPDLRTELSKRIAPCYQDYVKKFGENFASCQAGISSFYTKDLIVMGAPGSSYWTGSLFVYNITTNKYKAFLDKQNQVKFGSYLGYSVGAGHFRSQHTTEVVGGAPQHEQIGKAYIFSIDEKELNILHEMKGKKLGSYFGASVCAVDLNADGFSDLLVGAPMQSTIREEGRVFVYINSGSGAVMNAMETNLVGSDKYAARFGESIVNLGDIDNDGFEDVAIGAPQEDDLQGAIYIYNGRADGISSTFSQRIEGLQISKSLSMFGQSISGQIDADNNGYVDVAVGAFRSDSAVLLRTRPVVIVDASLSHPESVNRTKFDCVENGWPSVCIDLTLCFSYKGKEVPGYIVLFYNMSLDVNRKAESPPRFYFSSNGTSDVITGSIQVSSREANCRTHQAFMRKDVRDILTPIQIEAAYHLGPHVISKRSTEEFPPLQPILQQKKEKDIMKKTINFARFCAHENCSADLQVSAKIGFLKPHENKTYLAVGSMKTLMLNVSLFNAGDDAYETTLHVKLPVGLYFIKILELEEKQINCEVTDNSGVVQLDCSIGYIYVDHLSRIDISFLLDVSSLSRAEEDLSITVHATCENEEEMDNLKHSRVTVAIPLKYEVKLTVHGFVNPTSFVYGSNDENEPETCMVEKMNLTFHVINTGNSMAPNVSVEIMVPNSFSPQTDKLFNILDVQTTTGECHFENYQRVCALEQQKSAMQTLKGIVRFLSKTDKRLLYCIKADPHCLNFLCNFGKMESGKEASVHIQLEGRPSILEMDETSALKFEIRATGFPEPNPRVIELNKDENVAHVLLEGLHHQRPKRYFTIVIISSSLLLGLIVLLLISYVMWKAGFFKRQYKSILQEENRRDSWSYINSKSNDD
T1 sequence (P26010 20-798): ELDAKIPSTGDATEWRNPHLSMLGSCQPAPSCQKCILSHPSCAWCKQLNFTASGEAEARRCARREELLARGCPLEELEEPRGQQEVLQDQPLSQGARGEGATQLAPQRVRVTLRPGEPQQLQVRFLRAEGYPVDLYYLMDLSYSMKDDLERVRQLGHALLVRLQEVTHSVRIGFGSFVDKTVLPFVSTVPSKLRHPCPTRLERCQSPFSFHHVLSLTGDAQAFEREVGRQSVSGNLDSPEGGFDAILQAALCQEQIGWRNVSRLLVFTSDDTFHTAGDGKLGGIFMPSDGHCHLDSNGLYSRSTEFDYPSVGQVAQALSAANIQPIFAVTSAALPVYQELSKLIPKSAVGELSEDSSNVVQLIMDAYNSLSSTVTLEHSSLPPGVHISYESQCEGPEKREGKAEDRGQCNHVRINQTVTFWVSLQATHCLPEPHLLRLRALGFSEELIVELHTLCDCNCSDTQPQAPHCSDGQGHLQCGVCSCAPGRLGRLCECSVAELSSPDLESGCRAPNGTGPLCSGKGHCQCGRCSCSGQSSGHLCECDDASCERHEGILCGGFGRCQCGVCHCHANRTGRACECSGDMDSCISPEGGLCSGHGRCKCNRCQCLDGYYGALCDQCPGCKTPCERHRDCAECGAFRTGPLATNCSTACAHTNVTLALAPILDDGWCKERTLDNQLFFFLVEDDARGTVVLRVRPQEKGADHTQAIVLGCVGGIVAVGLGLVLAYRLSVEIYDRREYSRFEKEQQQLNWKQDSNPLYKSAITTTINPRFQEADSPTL
Nature of the assay: α4β7-K562 Cell Adhesion Assay (α4β7 Mediated Adhesion/MAdCAM-1). The format is cell-based. Particulars: K562 cells expressing human α4β7 adhering to FLAG-hMAdCAM-1, 1 mM Mn2+. As for the experimental part:
α4β7-K562 Cell Adhesion Assay (α4β7 Mediated Adhesion/MAdCAM-1)
M2 anti-FLAG Antibody Coated 96-well plates (Sigma) were coated for 1 hour at 4° C. with 2-8 μL/well recombinant FLAG-hMAdCAM-1 contained in 100 μL of Dulbecco's PBS, pH 7.4, with 1% BSA and 1 mM Mn^2+ (PBS-BSA-Mn). Plates were washed once with PBS-BSA-Mn. Buffer was removed and compounds to be tested (50 μL) were added at 2× concentration. Stably transfected K562 cells expressing human α4β7 integrin, (50 μL at 2×10^6/mL) that had been labeled with 100 μg/mL carboxymethyl fluorescein diacetate succinimidyl ester (CFDA-SE; Molecular Probes) for 15 min at 37° C. were added to each well and allowed to adhere for 1 h at room temperature. Plates were washed 4× in PBS-BSA-Mn and then cells were lysed for 2 min by addtion of 100 μL of PBS without Ca^2+, Mg^2+ supplemented with 0.1 M NaOH. The plate was read on a 96-well fluorescent plate reader at 485 nm excitation and 530 nm emission.

The target of a further assay is T2, α4β1 (Homo sapiens, UniProt P05556+P13612).
T2 construct: Ramos cells, (50 μL at 2×10^6/mL) labeled with 5 μM Calcein AM; endogenous in cells; host or cells: Ramos cells
Kind of assay: Ramos Cell Adhesion Assay (α4β1 Mediated Adhesion/VCAM-1). The format is cell-based. Particulars: Ramos cells adhering to recombinant hVCAM-1. On the procedure:
Ramos Cell Adhesion Assay (α4β1 Mediated Adhesion/VCAM-1)
Immulon 96 well plates (Dynex) were coated with 100 μL recombinant hVCAM-1 at 4.0 μg/mL in 0.05 M NaCO3 buffer pH 9.0 overnight at 4° C. (R&D Systems). Plates were washed 2 times in PBS with 1% BSA and blocked for 1 h@room temperature in this buffer. PBS was removed and compounds to be tested (50 μL) were added at 2× concentration. Ramos cells, (50 μL at 2×10^6/mL) labeled with 5 μM Calcein AM (Molecular Probes) for 1 h at 37° C., were added to each well and allowed to adhere for 1 h at room temperature. Plates were washed 4 × in PBS+1% BSA and cells were lysed for 15 minutes in 100 μL of 1 M Tris pH 8.0 with 1% SDS. The plate was read at 485 nm excitation and 530 nm emission.

T2 sequence (P05556 21-798, one chain of several): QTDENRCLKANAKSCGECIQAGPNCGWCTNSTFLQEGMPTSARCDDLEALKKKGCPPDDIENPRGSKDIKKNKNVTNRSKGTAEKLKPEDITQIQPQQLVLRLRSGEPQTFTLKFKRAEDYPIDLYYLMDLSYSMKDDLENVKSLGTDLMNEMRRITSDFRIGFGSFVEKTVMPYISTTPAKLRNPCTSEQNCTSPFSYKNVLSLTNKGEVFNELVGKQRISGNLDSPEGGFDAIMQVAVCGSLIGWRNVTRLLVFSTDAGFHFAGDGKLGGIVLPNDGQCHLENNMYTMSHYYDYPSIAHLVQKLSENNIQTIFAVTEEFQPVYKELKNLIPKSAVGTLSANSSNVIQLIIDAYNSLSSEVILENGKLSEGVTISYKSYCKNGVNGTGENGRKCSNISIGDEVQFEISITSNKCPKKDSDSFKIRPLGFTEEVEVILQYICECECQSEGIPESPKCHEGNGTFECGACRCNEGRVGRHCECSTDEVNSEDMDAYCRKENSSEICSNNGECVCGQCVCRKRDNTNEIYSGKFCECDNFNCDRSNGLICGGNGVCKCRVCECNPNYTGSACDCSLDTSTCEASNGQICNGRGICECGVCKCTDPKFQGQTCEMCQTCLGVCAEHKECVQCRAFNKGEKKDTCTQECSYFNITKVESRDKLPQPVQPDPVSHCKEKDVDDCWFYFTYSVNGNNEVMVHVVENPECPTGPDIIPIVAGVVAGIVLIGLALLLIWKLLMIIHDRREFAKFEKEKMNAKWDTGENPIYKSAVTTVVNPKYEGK

Consider `COc1cnn(C)c(=O)c1-c1ccc(C[C@H](NC(=O)N[C@@H]2CS(=O)(=O)C[C@H]2O)C(=O)O)cc1` [Cpd 36], for which the values for the pIC50 against human α4β7 integrin and on α4β1 were 6.17 and below 5.30, respectively.
The corresponding values for `COc1cnn(C)c(=O)c1-c1ccc(C[C@H](NC(=O)N(C)C2CCN(Cc3ccccc3)C2)C(=O)O)cc1` (stereo partly drawn) [Cpd 35] are 5.74 and below 5.30.
The corresponding values for `COc1cnn(C)c(=O)c1-c1ccc(C[C@H](NC(=O)N2CCC(O)C2)C(=O)O)cc1` (mixture of isomers) [Cpd 6] are 6.42 and below 5.30.
The corresponding values for `COc1cnn(C)c(=O)c1-c1ccc(C[C@H](NC(=O)N(O)C2CCCCC2)C(=O)O)cc1` [Cpd 26] are 6.22 and below 5.30.
On to `COc1cnn(C)c(=O)c1-c1ccc(C[C@H](NC(=O)N2c3ccccc3CC2C)C(=O)O)cc1` (mixture of isomers) [Cpd 49], for which the results for the pIC50 against human α4β7 integrin and at α4β1 were 6.41 and below 5.30, respectively.
On the same counts, the results for `COc1cnn(C)c(=O)c1-c1ccc(C[C@H](NC(=O)N(CCO)c2ccccc2)C(=O)O)cc1` [Cpd 16] are 7.16 and below 5.30.
On the same counts, the results for `COc1cnn(C)c(=O)c1-c1ccc(C[C@H](NC(=O)N2CCN(C)CC2)C(=O)O)cc1` [Cpd 5] are 6.33 and below 5.30.
On the same counts, the results for `CCN(CCN(C)C)C(=O)N[C@@H](Cc1ccc(-c2c(OC)cnn(C)c2=O)cc1)C(=O)O` [Cpd 37] are 6.53 and below 5.30.
Consider `COc1cnn(C)c(=O)c1-c1ccc(C[C@H](NC(=O)N[C@H]2CC3CCC2C3)C(=O)O)cc1` (stereo partly drawn) [Cpd 23], for which the pIC50 (as a rule, −log10 of the IC50, conventionally taken in molar units) against human α4β7 integrin was 6.74; at α4β1 it was below 5.30.
`CCCN(C(=O)N[C@@H](Cc1ccc(-c2c(OC)cnn(C)c2=O)cc1)C(=O)O)c1ccccc1` [Cpd 50] gave a pIC50 at human α4β7 integrin of 6.45.
Take `COc1cnn(C)c(=O)c1-c1ccc(C[C@H](NC(=O)N2CCCCC2C)C(=O)O)cc1` (mixture of isomers) [Cpd 28]: the pIC50 at human α4β7 integrin is 7.54; on α4β1 it was 5.74.
The corresponding values for `COc1cnn(C)c(=O)c1-c1ccc(C[C@H](NC(=O)N(CCO)C2CCCCC2)C(=O)O)cc1` [Cpd 17] are 6.55 and below 5.30.
Take `COc1cnn(C)c(=O)c1-c1ccc(C[C@H](NC(=O)NC2CCCCC2)C(=O)O)cc1` [Cpd 20]: at human α4β7 integrin, the pIC50 was 6.30.
As to `COc1cnn(C)c(=O)c1-c1ccc(C[C@H](NC(=O)N(Cc2ccccc2)C(C)C)C(=O)O)cc1` [Cpd 27], the negative-log IC50 (pIC50) at human α4β7 integrin is 6.66; at α4β1 it was below 5.30.
On the same counts, the results for `COc1cnn(C)c(=O)c1-c1ccc(C[C@H](NC(=O)N2c3ccc(F)cc3CCC2C)C(=O)O)cc1` (mixture of isomers) [Cpd 53] are 6.89 and below 5.30.
On the same counts, the results for `CCN(C(=O)N[C@@H](Cc1ccc(-c2c(OC)cnn(C)c2=O)cc1)C(=O)O)c1cc(O)ccc1C` [Cpd 44] are 7.62 and below 5.30.
For the molecule `COc1cnn(C)c(=O)c1-c1ccc(C[C@H](NC(=O)N2CCN(C3C4CC5CC(C4)CC3C5)CC2)C(=O)O)cc1` (stereo partly drawn) [Cpd 25], the pIC50 against human α4β7 integrin is 5.70; at α4β1, below 5.30.
Turning to `COc1cnn(C)c(=O)c1-c1ccc(C[C@H](NC(=O)N(C)C2CCCCC2)C(=O)O)cc1` [Cpd 11], the results for the pIC50 at human α4β7 integrin and at α4β1 were 7.28 and below 5.30, respectively.
As for `COc1cnn(C)c(=O)c1-c1ccc(C[C@H](NC(=O)N(C)Cc2cnn(-c3ccccc3)c2)C(=O)O)cc1` [Cpd 29], the pIC50 on human α4β7 integrin was 6.16; at α4β1 it was below 5.30.
As to `COc1cnn(CCO)c(=O)c1-c1ccc(C[C@H](NC(=O)Nc2c(Cl)cccc2Cl)C(=O)O)cc1` [Cpd 2], the values for the pIC50 against human α4β7 integrin and at α4β1 were 7.55 and 5.54, respectively.
On the same counts, the results for `COc1cnn(C)c(=O)c1-c1ccc(C[C@H](NC(=O)N2CCCN(c3nc4ccccc4o3)CC2)C(=O)O)cc1` [Cpd 30] are 6.81 and below 5.30.
The corresponding values for `COc1cnn(C)c(=O)c1-c1ccc(C[C@H](NC(=O)N(Cc2cccnc2)C2CN3CCC2CC3)C(=O)O)cc1` (mixture of isomers) [Cpd 40] are 6.00 and below 5.30.
Take `COc1cnn(C)c(=O)c1-c1ccc(CC(NC(=O)N2CCCC2CO)C(=O)O)cc1` (stereo not drawn) [Cpd 8, 2-[(2-Hydroxymethyl-pyrrolidine-1-carbonyl)-amino]-3-[4-(5-methoxy-2-methyl-3-oxo-2,3-dihydro-pyridazin-4-yl)-phenyl]-propionic acid]: the pIC50 is 6.47 on human α4β7 integrin and below 5.30 at α4β1.
The corresponding values for `COc1cnn(C)c(=O)c1-c1ccc(C[C@H](NC(=O)N(CCO)Cc2ccccc2)C(=O)O)cc1` [Cpd 15] are 6.51 and below 5.30.
The corresponding values for `COc1cnn(C)c(=O)c1-c1ccc(C[C@H](NC(=O)N(C)c2ccccc2C(F)(F)F)C(=O)O)cc1` [Cpd 52] are 7.43 and 5.38.
At human α4β7 integrin, `COc1cnn(C)c(=O)c1-c1ccc(C[C@H](NC(=O)N(C)C)C(=O)O)cc1` [Cpd 19] showed a pIC50 of 5.81.
Consider `COc1cnn(C)c(=O)c1-c1ccc(C[C@H](NC(=O)N(C)Cc2ccccc2)C(=O)O)cc1` [Cpd 12], for which the pIC50 was 6.22 against human α4β7 integrin and below 5.30 at α4β1.
The corresponding values for `COc1cnn(C)c(=O)c1-c1ccc(C[C@H](NC(=O)N(CC(C)C)c2ccccc2)C(=O)O)cc1` [Cpd 41] are 6.67 and below 5.30.
Consider `COc1cnn(C)c(=O)c1-c1ccc(C[C@H](NC(=O)N(C)c2ccccn2)C(=O)O)cc1` [Cpd 54], for which the pIC50 was 6.06 against human α4β7 integrin and below 5.30 on α4β1.
Regarding `COc1cnn(C)c(=O)c1-c1ccc(C[C@H](NC(=O)N(Cc2ccccc2)CC(C)C)C(=O)O)cc1` [Cpd 18], the pIC50 was 6.40 against human α4β7 integrin and 5.58 at α4β1.
